Where two headings read alike, the source gives them in different places.
How the values were obtained:
Jeko-1 = assay: CTG assay of payloads, Jeko-1 cells; assay type: cell-based, human; details: 72 h, CellTiter-Glo
Description: (§1) The CTG assay is a method of determining the number of viable cells in culture based on quantitation of the ATP present, an indicator of metabolically active cells. The cell assay requires the addition of a single reagent, Cell Titer Glo, in which cells are lysed and generation of a luminescent signal is produced. The luminescent signal is proportional to the amount of ATP present. The amount of ATP is directly proportional to the number of cells present in culture. For this assay, cells were ensured to be in log-phase for either Jeko-1 or MDA-MB-468. Cells were transferred to 96 wells and treated with compounds in three-fold serial dilution starting from […] (10 points dilution), for 72 h. Cell viability was analyzed with CellTiter-Glo® Luminescent Cell Viability Assay (Promega) following manufactures' instruction. Percentage of viable cells in each compound concentration was determined by normalizing with the luminescence of vehicle control and plotted into percentage of viability versus dose response curve by nonlinear fit in GraphPad Prism software.

[1] = PAMPA (Parallel Artificial Membrane Permeability Assay); assay type: physicochemical; parameters: dose or concentration left out as unconfirmed
Description: PAMPA is a method which determines the permeability of substances from a donor compartment, through a lipid-infused artificial membrane into an acceptor compartment. See Ottaviani, G.; Martel, S.; Carrupt, P-A. “Parallel Artificial Membrane Permeability Assay: A New Membrane for the Fast Prediction of Passive Human Skin Permeability”, Journal of Medicinal Chemistry, 2006, 49 (13), 3948-3954). A multi-well microtitre plate is used for the donor and a membrane/acceptor compartment is placed on top; the whole assembly is commonly referred to as a “sandwich”. At the beginning of the test, the drug is added to the donor compartment, and the acceptor compartment is drug-free. After an incubation period which may include stirring, the sandwich is separated, and the amount of drug is measured in each compartment. Mass balance allows calculation of drug that remains in the membrane.
The PAMPA was performed by Pion Inc using the GIT-0 lipid and 5 mM donor solution in pH 5.0 and pH 7.4 PRISMA buffer (containing 0.05% DMSO). The higher PAMPA data has been associated with better bystander killing. (Ogitani Y.; Hagihara K.; Oitate, M.; Naito, H.; Agatsuma T. “Bystander killing effect of DS-8201a, a novel anti-human epidermal growth factor receptor 2 antibody-drug conjugate, in tumors with human epidermal growth factor receptor 2 heterogeneity” Cancer Science, 2016, 107 (7), 1039-1046).

[2] = Human liver microsome clearance (HLM CL); assay type: in vitro ADME; parameters: CLint scaled / half-life: dose or concentration left out as unconfirmed
Protocol: Working solution was prepared by adding 5 μL of compound and control stock solution (10 mM in dimethyl sulfoxide, DMSO) to 495 μL of acetonitrile (ACN) (intermediate solution concentration: 100 μM, 99% CAN and 1% DMSO. The appropriate concentrations of microsome working solutions were prepared in 100 mM potassium phosphate buffer. After reaction plates containing mixtures of compound and microsomes were pre-incubated at 37° C. for 10 min, […] of 2 mM of NADPH and 2 mM of MgCl2 solution was added to start the reaction. The final concentrations of incubation medium were as follows: microsome—0.5 mg protein/mL, test compound/control […], NADPH—1 mM, MgCl2—1 mM, acetonitrile 0.99%, DMSO 0.01%. Incubations were performed at 37° C. for 60 min. Samples were taken out at T0, T5, T15, T30, T45 and T60, which was added intermediately to the ice-cold stop solution (acetonitrile with 200 ng/mL of to butamide and labetalol as internal standard) (125 μl), shaken for 10 min, centrifuged at 4000 rpm for 20 min at 4° C. Analytical plates were analyzed by LCMS.
(§2) Human liver microsome clearance assay assess metabolism by the cytochrome P450 system (phase I enzymes). These enzymes oxidize substrates by incorporating oxygen atoms into hydrocarbons, thus causing the introduction of hydroxyl groups, or N- O- and S-dealkylation of substrates and forming more polar products easier to be cleared. Human hepatocyte clearance assay measures more broadly the overall cellular metabolism of the test compound (phase I and phase II enzyme pathways). Phase II enzymes catalyze the conjugation reaction of xenobiotic metabolites and charged species, such as glutathione, sulfate, glycine, or glucuronic acid to form even more polar compounds for easier clearance.

[3] = Human hepatocyte clearance (HHEP CL); assay type: in vitro ADME; parameters: CLint scaled / half-life: dose or concentration left out as unconfirmed
Protocol: Suspensions of human hepatocytes (from 10 mixed gender human donors, final concentration 0.5×10^6 cell/mL) in Williams' E medium were incubated for 90 min with a test compound (0.90% acetonitrile and 0.10% DMSO, final concentration […]) and positive controls (7-Ethoxycoumarin, 7-Hydroxycoumarin, 0.90% acetonitrile and 0.10% DMSO, final concentration […]), with constant shaking at about 600 rpm at 37° C. in an incubator at 5% CO2 and 95% humidity. The total volume of incubation was 200 μl. A sample ([…]) was taken out at T0, 15, 30, 60 and 90 min, which was added intermediately to the ice-cold stop solution (acetonitrile with 200 ng/mL of to butamide and labetalol as internal standard) (125 μl), and vortexed at 500 rpm for 10 min, centrifuged at 3220×g for 20 min at 4° C. Analytical plates were sealed and stored at 4° C. until LCMS analysis. Viability of hepatocytes at pre-incubation was determined to be 84.5%.
as §2

MDA-MB-468 = assay: CTG assay of payloads, MDA-MB-468 cells; assay type: cell-based, human; details: Table 1, 72 h, CellTiter-Glo
Description: as §1

SMILES | IC50 (Jeko-1; Homo sapiens, JeKo-1, Table 2) [nM] | Papp ([1]; pH 5) [×10⁻⁶ cm/s] | Papp ([1]; pH 7.4) [×10⁻⁶ cm/s] | half-life ([2]; human, microsomes) [min] | half-life ([3]; both sexes, human, hepatocytes) [min] | further results
CC[C@@]1(O)C(=O)OCc2c1cc1n(c2=O)Cc2c-1nc1cc(F)c(C)c3c1c2[C@@H](CCCO)CC3 (single isomer, unassigned) [Compound 13-64] | 0.28 | 14.6 | 10.6 | 22 | 79.4 | 
CC[C@@]1(O)C(=O)OCc2c1cc1n(c2=O)Cc2c-1nc1cc(F)c(C)c3c1c2[C@@H](NC(=O)CO)CC3 [Dxd, reference compound] |  |  |  |  |  | IC50 (Jeko-1; Table 1): 1.42 nM; IC50 (Jeko-1; Table 2): 0.52 nM; IC50 (MDA-MB-468): 11.6 nM; HLM Cl ([2]; Table 1, human liver microsome clearance): 8.6 mL/min/kg; HLM (T1/2) ([2]; Table 1, human liver microsomes): (>145); HLM Cl (T1/2) ([2]; Table 2, one value per cell): 52.2; HHEP (T1/2) ([3]; Table 1, human hepatocytes): (217) min; HHEP Cl ([3]; Table 1, human hepatocytes intrinsic clearance): 17.8 mL/min/kg; HHEP Cl (T1/2) ([3]; Table 2, one value per cell): >217
CC[C@@]1(O)C(=O)OCc2c1cc1n(c2=O)Cc2c-1nc1cc(F)c(C)c3c1c2[C@](C)(CCCO)CC3 (single isomer, unassigned) [Compound 15-75] | 0.88 | 16.5 | 11.5 | 22.4 | 76.5 | 
CC[C@@]1(O)C(=O)OCc2c1cc1n(c2=O)Cc2c-1nc1cc(F)c(C)c3c1c2[C@@](C)(CCCO)CC3 (single isomer, unassigned) [Compound 15-76] | 0.27 | 45.5 | 33.2 | 5.2 | 40.8 | 
CC[C@@]1(O)C(=O)OCc2c1cc1n(c2=O)Cc2c-1nc1cc(F)c(C)c3c1c2[C@](C)(COCCO)CC3 (single isomer, unassigned) [Compound 16-82] | 0.64 | 54.8 | 25.5 | 5.6 | 45 | 
CC[C@@]1(O)C(=O)OCc2c1cc1n(c2=O)Cc2c-1nc1cc(F)c(C)c3c1c2[C@@H](CCO)CC3 (single isomer, unassigned) [Compound 12-59] | 0.32 | 46.9 | 33.4 | 20.1 | 64.3 | 
CC[C@@]1(O)C(=O)OCc2c1cc1n(c2=O)Cc2c-1nc1cc(F)c(C)c3c1c2[C@](C)(CCO)CC3 (single isomer, unassigned) [Compound 14-70] | 0.79 | 44.2 | 28.5 | 18.4 | 53.6 | 
CC[C@@]1(O)C(=O)OCc2c1cc1n(c2=O)Cc2c-1nc1cc(F)c(C)c3c1c2[C@@](C)(N(C)CCO)CC3.Cl (single isomer, unassigned) [Compound 6-44, hydrochloride] |  |  |  |  |  | IC50 (Jeko-1; Homo sapiens, JeKo-1, Table 1): 24.1 nM; IC50 (MDA-MB-468; Homo sapiens, MDA-MB-468): 198 nM; CLint scaled ([2]; microsomes, Table 1, human liver microsome clearance, read-out: HLM Cl): 51.7 mL/min/kg; CLint scaled ([3]; both sexes, Table 1, human hepatocytes intrinsic clearance, read-out: HHEP Cl): 48.3 mL/min/kg
CC[C@@]1(O)C(=O)OCc2c1cc1n(c2=O)Cc2c-1nc1cc(F)c(C)c3c1c2[C@H](CCO)CC3 (single isomer, unassigned) [Compound 12-58] | 0.24 | 2.9 | 3.8 | 20.1 | 68.1 | 
CC[C@@]1(O)C(=O)OCc2c1cc1n(c2=O)Cc2c-1nc1cc(F)c(C)c3c1c2[C@@](C)(COCCO)CC3 (single isomer, unassigned) [Compound 16-83] | 1.1 | 47.7 | 25.1 | 25.7 | 113 | 
C=CC[C@@H]1CCc2c(C)c(F)cc3nc4c(c1c23)Cn1c-4cc2c(c1=O)COC(=O)[C@]2(O)CC (single isomer, unassigned) [Compound 17-86] | 0.93 |  |  | 13 | 46 | 
CC[C@@]1(O)C(=O)OCc2c1cc1n(c2=O)Cc2c-1nc1cc(F)c(C)c3c1c2[C@@](C)(CCO)CC3 (single isomer, unassigned) [Compound 14-71] | 0.18 | 25 | 17.3 | 10.8 | 47 | 
C=CC[C@H]1CCc2c(C)c(F)cc3nc4c(c1c23)Cn1c-4cc2c(c1=O)COC(=O)[C@]2(O)CC (single isomer, unassigned) [Compound 17-87] | 0.58 |  |  | 5.4 | 31 | 
CC[C@@]1(O)C(=O)OCc2c1cc1n(c2=O)Cc2c-1nc1cc(F)c(C)c3c1c2[C@H](CCCO)CC3 (single isomer, unassigned) [Compound 13-63] | 0.44 | 34.7 | 32.9 | 27.1 | 141 | 
CC[C@@]1(O)C(=O)OCc2c1cc1n(c2=O)Cc2c-1nc1cc(F)c(C)c3c1c2[C@@](C)(N(C)CCO)CC3.Cl (single isomer, unassigned) [Compound 6-44] |  |  |  |  |  | Papp ([1]; Table 1, pH 5.0, read-out: PAMPA Pe pH 5.0): 54.9 ×10⁻⁶ cm/s; Papp ([1]; Table 1, pH 7.4, read-out: PAMPA Pe pH 7.4): 8.3 ×10⁻⁶ cm/s; half-life ([2]; Table 1, human liver microsomes, read-out: HLM (T1/2)): 24 min; half-life ([3]; both sexes, Table 1, human hepatocytes, read-out: HHEP (T1/2)): 80 min
